Legend:
[1] = biological target: human BACE1 (Homo sapiens, UniProt P56817); experiment: Fluorescent kinetic assay, inhibition of BACE1 (WABC-6 peptide substrate); type: biochemical; conditions: 10 nM enzyme, 25 μM substrate WABC-6, pH 4.5, room temperature; read-out: IC50 (μM) BACE1;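 note: fluorescence monitored at 320 nm excitation and 420 nm emission every 40 s over 30 min, with the substrate cleavage rate taken from the linear slope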
[2] = biological target: T1, human BACE2 (Homo sapiens, UniProt Q9Y5Z0); experiment: Fluorescent Kinetic Assay for Human Recombinant BACE 2 (selectivity BACE1/BACE2); type: biochemical; conditions: selectivity BACE1 over BACE2; 1.5 nM human BACE2, 25 μM substrate, pH 4.5;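 note: cleavage rate from the linear slope of fluorescence (excitation 320 nm, emission 420 nm) recorded every 40 s over 30 min at room temperature, sodium acetate buffer with 0.05% CHAPS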
T1 sequence (Q9Y5Z0 63-518): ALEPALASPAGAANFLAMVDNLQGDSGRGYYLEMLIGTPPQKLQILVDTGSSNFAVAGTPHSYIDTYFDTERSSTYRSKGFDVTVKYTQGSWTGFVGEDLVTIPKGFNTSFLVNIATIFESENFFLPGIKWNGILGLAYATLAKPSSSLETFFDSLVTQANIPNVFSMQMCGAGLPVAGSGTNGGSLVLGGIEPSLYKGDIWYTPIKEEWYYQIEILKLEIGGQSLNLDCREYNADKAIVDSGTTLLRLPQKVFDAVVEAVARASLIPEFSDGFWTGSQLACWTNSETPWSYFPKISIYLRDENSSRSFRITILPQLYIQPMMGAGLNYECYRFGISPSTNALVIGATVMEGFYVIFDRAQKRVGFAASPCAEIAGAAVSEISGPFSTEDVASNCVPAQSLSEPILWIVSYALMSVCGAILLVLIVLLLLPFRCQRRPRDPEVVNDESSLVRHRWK

Sequence of human BACE1 (P56817 46-501): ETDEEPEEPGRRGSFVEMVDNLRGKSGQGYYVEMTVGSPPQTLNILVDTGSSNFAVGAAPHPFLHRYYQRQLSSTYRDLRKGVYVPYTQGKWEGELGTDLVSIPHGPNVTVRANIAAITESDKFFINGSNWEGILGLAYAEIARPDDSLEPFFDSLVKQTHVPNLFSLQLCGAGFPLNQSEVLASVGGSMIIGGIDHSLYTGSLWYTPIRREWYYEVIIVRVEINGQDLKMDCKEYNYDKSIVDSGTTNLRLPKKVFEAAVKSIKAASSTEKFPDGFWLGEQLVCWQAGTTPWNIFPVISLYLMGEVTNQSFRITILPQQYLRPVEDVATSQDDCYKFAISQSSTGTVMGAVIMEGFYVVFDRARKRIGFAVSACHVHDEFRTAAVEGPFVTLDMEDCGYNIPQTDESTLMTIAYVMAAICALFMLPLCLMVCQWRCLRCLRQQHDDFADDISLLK

SMILES	melting point	IC50 [1]	BACE1/BACE2 selectivity [2]
CN1C(=O)C(c2ccc(OC(F)(F)F)c(F)c2)(c2ccc(F)c(-c3cncc(Cl)c3)c2)N=C1N (stereo not drawn) [Example 42]	201 to 203 °C	0.11 to 1 µM	II (II = 10-100-fold selectivity)
CN1C(=O)C(c2ccc(OC(F)(F)F)cc2)(c2ccc(F)c(-c3cncc(Cl)c3)c2)N=C1N (stereo not drawn) [Example 46]	241 to 243 °C	0.11 to 1 µM	II (II = 10-100-fold selectivity)
CN1C(=O)C(c2ccc(OC(F)(F)F)cc2)(c2ccc(F)c(-c3cncc(F)c3)c2)N=C1N (stereo not drawn) [Example 47]	216 to 218 °C	0.11 to 1 µM	II (II = 10-100-fold selectivity)
CN1C(=O)C(c2ccc(SC(F)(F)F)cc2)(c2ccc(F)c(-c3cncnc3)c2)N=C1N (stereo not drawn) [Example 94]	183 °C	0.11 to 1 µM	II (II = 10-100-fold selectivity)
CCOC(=O)COc1ccc(C2(c3cccc(-c4cncnc4)c3)N=C(N)N(C)C2=O)cc1C (stereo not drawn) [Example 119]	105 to 107 °C	0.11 to 1 µM	II (II = 10-100-fold selectivity)
CN1C(=O)C(c2ccc(OC(F)(F)F)cc2)(c2ccc(Cl)c(-c3cncnc3)c2)N=C1N (stereo not drawn) [Example 49]	124 to 129 °C	0.11 to 1 µM	I (I = >100-fold selectivity)
CN1C(=O)C(c2ccc(OCCF)cc2)(c2cccc(-c3ccc(F)nc3)c2)N=C1N (stereo not drawn) [Example 111]	100 °C	0.11 to 1 µM	III (III = <10-fold selectivity)
Cc1cc(C2(c3cccc(-c4cncnc4)c3)N=C(N)N(C)C2=O)ccc1OC(C)C (stereo not drawn) [Example 118]	101 to 103 °C	0.01 to 0.1 µM	I (I = >100-fold selectivity)
COc1cncc(-c2cccc(C3(c4ccc(OC(F)(F)F)cc4)N=C(N)N(C)C3=O)c2)c1 (stereo not drawn) [Example 51]	212 °C	0.01 to 0.1 µM	III (III = <10-fold selectivity)
CN1C(=O)C(c2ccc(OC(F)F)cc2)(c2ccc(F)c(-c3cccnc3)c2)N=C1N (stereo not drawn) [Example 95]	104 to 106 °C	0.01 to 0.1 µM	II (II = 10-100-fold selectivity)
Cc1cc(C2(c3cccc(-c4cncnc4)c3)N=C(N)N(C)C2=O)ccc1O (stereo not drawn) [Example 115]	168 to 170 °C	0.01 to 0.1 µM	II (II = 10-100-fold selectivity)
CCOc1ccc(C2(c3ccc(F)c(-c4cccnc4)c3)N=C(N)N(C)C2=O)cc1OCC (stereo not drawn) [Example 99]	93 to 95 °C	0.01 to 0.1 µM	III (III = <10-fold selectivity)
COc1ccc(C2(c3ccc(F)c(-c4cncnc4)c3)N=C(N)N(C)C2=O)cc1C(F)(F)F (stereo not drawn) [Example 56]	115 °C	0.01 to 0.1 µM	I (I = >100-fold selectivity)
CN1C(=O)C(c2ccc(OC(F)(F)F)c(Cl)c2)(c2ccc(F)c(-c3cccnc3)c2)N=C1N (stereo not drawn) [Example 28]	99 to 102 °C	0.01 to 0.1 µM	II (II = 10-100-fold selectivity)
CN1C(=O)C(c2ccc(OCCF)cc2)(c2ccc(F)c(-c3cncnc3)c2)N=C1N (stereo not drawn) [Example 109]	123 °C	0.01 to 0.1 µM	II (II = 10-100-fold selectivity)
CCCOc1ccc(C2(c3cccc(-c4cncnc4)c3)N=C(N)N(C)C2=O)cc1C (stereo not drawn) [Example 121]	102 to 104 °C	0.01 to 0.1 µM	II (II = 10-100-fold selectivity)
Cc1cc(C2(c3cccc(-c4cncnc4)c3)N=C(N)N(C)C2=O)ccc1OCC#N (stereo not drawn) [Example 117]	220 to 222 °C	0.01 to 0.1 µM	II (II = 10-100-fold selectivity)

Next, values leading:

melting point	IC50 [1]	BACE1/BACE2 selectivity [2]	SMILES
134 °C	0.01 to 0.1 µM	II (II = 10-100-fold selectivity)	CN1C(=O)C(c2ccc(OC(F)(F)F)cc2)(c2ccc(F)c(-c3cccnc3)c2)N=C1N (stereo not drawn) [Example 50]
108 to 110 °C	0.01 to 0.1 µM	II (II = 10-100-fold selectivity)	Cc1cc(C2(c3cccc(-c4cncnc4)c3)N=C(N)N(C)C2=O)ccc1OCCF (stereo not drawn) [Example 116]
95 °C	0.01 to 0.1 µM	II (II = 10-100-fold selectivity)	CN1C(=O)C(c2ccc(SC(F)(F)F)cc2)(c2ccc(F)c(-c3cccnc3F)c2)N=C1N (stereo not drawn) [Example 93]
100 to 105 °C	0.01 to 0.1 µM	II (II = 10-100-fold selectivity)	CCOc1ccc(C2(c3cccc(-c4cncnc4)c3)N=C(N)N(C)C2=O)cc1OCC (stereo not drawn) [Example 44]
104 to 107 °C	0.01 to 0.1 µM	II (II = 10-100-fold selectivity)	COc1cc(C2(c3cccc(-c4cccnc4)c3)N=C(N)N(C)C2=O)cc(OC)c1OC (stereo not drawn) [Example 23]
175 °C	0.01 to 0.1 µM	III (III = <10-fold selectivity)	COc1ccc(C2(c3cccc(-c4ccncc4)c3)N=C(N)N(C)C2=O)cc1C (stereo not drawn) [Example 36, 2-Amino-5-(4-methoxy-3-methylphenyl)-3-methyl-5-(3-pyridin-4-ylphenyl)-3,5-dihydro-4H-imidazol-4-one]
99 to 100 °C	0.01 to 0.1 µM	II (II = 10-100-fold selectivity)	CCOc1ccc(C2(c3ccc(F)c(-c4cccnc4)c3)N=C(N)N(C)C2=O)cc1OCC (stereo not drawn) [Example 27]
103 to 105 °C	0.01 to 0.1 µM	II (II = 10-100-fold selectivity)	CN1C(=O)C(c2ccc(OC(F)F)cc2)(c2ccc(F)c(-c3cncnc3)c2)N=C1N (stereo not drawn) [Example 97]
103 to 105 °C	0.01 to 0.1 µM	II (II = 10-100-fold selectivity)	Cc1cc(C2(c3cccc(-c4cncnc4)c3)N=C(N)N(C)C2=O)ccc1OCC(C)C (stereo not drawn) [Example 122]
135 °C	0.01 to 0.1 µM	II (II = 10-100-fold selectivity)	CN1C(=O)C(c2ccc(OCCF)cc2)(c2ccc(F)c(-c3cccnc3F)c2)N=C1N (stereo not drawn) [Example 108, 2-Amino-5-[4-(2-fluoroethoxy)phenyl]-5-[4-fluoro-3-(2-fluoropyridin-3-yl)phenyl]-3-methyl-3,5-dihydro-4H-imidazol-4-one]
98 °C	0.01 to 0.1 µM	II (II = 10-100-fold selectivity)	CN1C(=O)C(c2cccc(-c3cccnc3)c2)(c2ccc(OC(F)(F)F)c(C(F)(F)F)c2)N=C1N (stereo not drawn) [Example 26]
105 to 106 °C	0.01 to 0.1 µM	II (II = 10-100-fold selectivity)	Cc1cc(C2(c3ccc(F)c(-c4cccnc4F)c3)N=C(N)N(C)C2=O)ccc1OCCF (stereo not drawn) [Example 112]
198 °C	0.01 to 0.1 µM	II (II = 10-100-fold selectivity)	CN1C(=O)C(c2cccc(OC(F)(F)F)c2)(c2cccc(-c3cccnc3)c2)N=C1N (stereo not drawn) [Example 25]
89 to 99 °C	0.01 to 0.1 µM	II (II = 10-100-fold selectivity)	CN1C(=S)C(c2ccc(OC(F)(F)F)cc2)(c2cccc(-c3cccnc3F)c2)N=C1N (stereo not drawn) [Example 145, 2-Amino-5-[3-(2-fluoro-pyridin-3-yl)-phenyl]-3-methyl-5-(4-trifluoromethoxy-phenyl)-3,5-dihydro-imidazole-4-thione]
107 to 109 °C	0.01 to 0.1 µM	II (II = 10-100-fold selectivity)	Cc1cc(C2(c3cccc(-c4cncnc4)c3)N=C(N)N(C)C2=O)ccc1OCc1ccccc1 (stereo not drawn) [Example 114]
95 to 98 °C	0.01 to 0.1 µM	I (I = >100-fold selectivity)	CCOc1ccc(C2(c3ccc(F)c(-c4cncnc4)c3)N=C(N)N(C)C2=O)cc1OCC (stereo not drawn) [Example 86]
85 to 95 °C	0.01 to 0.1 µM	II (II = 10-100-fold selectivity)	CN1C(=O)C(c2ccc(OCCF)c(OCCF)c2)(c2ccc(F)c(-c3cccnc3F)c2)N=C1N (stereo not drawn) [Example 104, 2-Amino-5-[3,4-bis-(2-fluoro-ethoxy)-phenyl]-5-[4-fluoro-3-(2-fluoro-pyridin-3-yl)-phenyl]-3-methyl-3,5-dihydro-imidazol-4-one]
72 to 74 °C	0.01 to 0.1 µM	II (II = 10-100-fold selectivity)	Cc1cc(C2(c3cccc(-c4cncnc4)c3)N=C(N)N(C)C2=O)ccc1OCCCOc1ccccc1 (stereo not drawn) [Example 124]
106 to 108 °C	0.01 to 0.1 µM	I (I = >100-fold selectivity)	CCOc1ccc(C2(c3cccc(-c4cncnc4)c3)N=C(N)N(C)C2=O)cc1C (stereo not drawn) [Example 120]
108 to 110 °C	0.01 to 0.1 µM	II (II = 10-100-fold selectivity)	CN1C(=O)C(c2ccc(OC(F)F)cc2)(c2ccc(F)c(-c3cccnc3F)c2)N=C1N (stereo not drawn) [Example 96]
108 to 110 °C	0.01 to 0.1 µM	I (I = >100-fold selectivity)	Cc1cc(C2(c3ccc(F)c(-c4cncnc4)c3)N=C(N)N(C)C2=O)ccc1OCCF (stereo not drawn) [Example 113]
